Measured values: patent US10202373B2, “Heteroaryls and uses thereof” (MILLENNIUM PHARMACEUTICALS, INC., priority 2014, dated 2019)

Target: human VPS34 (Homo sapiens (Human), UniProt Q8NEB9)
Assay: Human VPS34 enzyme assay (Adapta TR-FRET)
Type: biochemical
Conditions: for inhibition at 1.11 µM: 1 h, inhibition of VPS34 at a 1.11 μM concentration, read-out: Percent Inhibition; for IC50: human VPS34 enzyme assay, IC50 ranges
Method: VPS34 (accession number GB:BC033004) was cloned into pDEST20-Thombin as N-terminal GST tagged fusion proteins using the Gateway system (Invitrogen, catalog#11804-013). The sequences were verified before recombinant protein expression using the Baculovirus Expression System with Gateway® Technology. For expression VPS34 was infected at 1 MOI in SF9 cells and harvested 72 hours post infection. For purification, VPS34 is purified by Glutathione Sepharose 4 Fast Flow (GE Healthcare #17-5132-03) followed by HiTrap Q (GE Healthcare #17-1153-01). Human VPS34 Enzyme Assay Method 100 nL compounds in DMSO are added to wells of a 384 well microtitre plate (Greiner 780076). At room temperature: 5 ul VPS34 reaction buffer (Invitrogen Assay Buffer Q (diluted 1 in 5 with nanopure water) plus 2 mM DTT and 2 mM MnCl2) containing ATP (20 uM, Promega) and 200 uM PI-PS substrate (Invitrogen PV5122) is added followed immediately by 5 ul VPS34 reaction buffer (as above) containing VPS34 (5 nM, Millennium Protein Sciences Group) and the mixture is incubated with shaking at room temperature for 1 hour. Then 5 ul […]-detect mix (as per Invitrogen Adapta Assay kit (PV5009) instructions (contains kinase quench buffer, TR-FRET buffer, Adapta Eu anti-ADP antibody and Alexa Fluor 647 ADP tracer)) is added to quench the reaction. The plates are then incubated for 30 minutes at room temperature with shaking and then read on a BMG PheraStar Plus reader. For the assay methods described above, test compound percent inhibition, at various concentrations, is calculated relative to control (DMSO and EDTA) treated samples. Compound concentration versus percent inhibition curves are fitted to generate IC50 values. One skilled in the art will appreciate that the values generated either as percentage inhibition at a single concentration or IC50 values are subject to experimental variation. […] Additionally, compounds of the invention that inhibit VPS34 are described with the following IC50 ranges: […]

human VPS34, sequence (Q8NEB9 whole entry): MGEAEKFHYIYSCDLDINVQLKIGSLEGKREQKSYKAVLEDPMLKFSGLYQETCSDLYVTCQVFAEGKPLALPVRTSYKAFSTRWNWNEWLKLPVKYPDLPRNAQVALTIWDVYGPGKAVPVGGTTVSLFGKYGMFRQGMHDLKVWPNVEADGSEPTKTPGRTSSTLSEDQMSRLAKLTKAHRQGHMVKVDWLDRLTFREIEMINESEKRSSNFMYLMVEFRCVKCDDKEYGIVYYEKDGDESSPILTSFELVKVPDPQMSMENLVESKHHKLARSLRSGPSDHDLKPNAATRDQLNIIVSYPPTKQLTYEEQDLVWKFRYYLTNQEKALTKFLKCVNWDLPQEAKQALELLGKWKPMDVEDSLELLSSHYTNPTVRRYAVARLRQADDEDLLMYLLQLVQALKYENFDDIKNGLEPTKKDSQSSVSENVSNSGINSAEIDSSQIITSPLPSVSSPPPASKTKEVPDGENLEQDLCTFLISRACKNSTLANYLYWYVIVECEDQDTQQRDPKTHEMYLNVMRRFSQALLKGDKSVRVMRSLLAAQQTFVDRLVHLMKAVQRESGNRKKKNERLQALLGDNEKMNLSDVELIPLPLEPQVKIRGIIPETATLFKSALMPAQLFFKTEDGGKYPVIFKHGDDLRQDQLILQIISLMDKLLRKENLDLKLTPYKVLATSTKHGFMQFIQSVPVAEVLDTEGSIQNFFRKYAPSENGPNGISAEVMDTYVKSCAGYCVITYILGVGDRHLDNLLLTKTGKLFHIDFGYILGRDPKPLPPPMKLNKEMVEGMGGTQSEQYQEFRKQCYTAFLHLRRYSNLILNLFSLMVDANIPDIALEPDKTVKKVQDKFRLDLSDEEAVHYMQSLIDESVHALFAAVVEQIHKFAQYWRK

Row | inhibition at 1.11 µM [%] | IC50 [µM] | SMILES
1 | 30 | > 0.1 | CS(=O)(=O)n1ccc2c(-c3ccnc(N)c3)cncc21 [Compound I-32, 4-[1-(methylsulfonyl)-1H-pyrrolo[2,3-c]pyridin-4-yl]pyridin-2-amine]
2 | > 99 | < 0.01 | CC(=O)Nc1cc(-c2cncc3c2ccn3S(=O)(=O)N(C)C)ccn1 [Compound I-33, N-{4-[1-(dimethylsulfamoyl)-1H-pyrrolo[2,3-c]pyridin-4-yl]pyridin-2-yl}acetamide]
3 | > 99 | 0.01 to 0.05 | CC(=O)Nc1cc(-c2cnc(C)c3c2ccn3S(=O)(=O)c2ccccc2C)ccn1 [Compound I-34, N-(4-{7-methyl-1-[(2-methylphenyl)sulfonyl]-1H-pyrrolo[2,3-c]pyridin-4-yl}pyridin-2-yl)acetamide]
4 | 79 | > 0.1 | CC(=O)Nc1cc(-c2cnc(C)c3c2ccn3CC2CC2)ccn1 [Compound I-36, N-{4-[1-(cyclopropylmethyl)-7-methyl-1H-pyrrolo[2,3-c]pyridin-4-yl]pyridin-2-yl}acetamide]
5 | > 99 | < 0.01 | CC(=O)Nc1cc(-c2cncc3c2ccn3S(=O)(=O)C2CC2)ccn1 [Compound I-37, N-{4-[1-(cyclopropylsulfonyl)-1H-pyrrolo[2,3-c]pyridin-4-yl]pyridin-2-yl}acetamide]
6 | 99 | 0.01 to 0.05 | COC(=O)Nc1cc(-c2cnc(C)c3c2ccn3S(C)(=O)=O)ccn1 [Compound I-38, methyl {4-[7-methyl-1-(methylsulfonyl)-1H-pyrrolo[2,3-c]pyridin-4-yl]pyridin-2-yl}carbamate]
7 | > 99 | < 0.01 | CC(=O)Nc1cc(-c2cncc3c2ccn3S(=O)(=O)c2ccccc2)ccn1 [Compound I-39, N-{4-[1-(phenylsulfonyl)-1H-pyrrolo[2,3-c]pyridin-4-yl]pyridin-2-yl}acetamide]
8 | > 99 | 0.01 to 0.05 | CC(=O)Nc1cc(-c2cnc(CN)c3c2ccn3S(=O)(=O)C2CC2)ccn1 [Compound I-41, N-{4-[7-(aminomethyl)-1-(cyclopropylsulfonyl)-1H-pyrrolo[2,3-c]pyridin-4-yl]pyridin-2-yl}acetamide]
9 | > 99 | < 0.01 | CCOC(=O)Nc1cc(-c2cnc(C)c3c2ccn3S(=O)(=O)C2CC2)ccn1 [Compound I-42, ethyl {4-[1-(cyclopropylsulfonyl)-7-methyl-1H-pyrrolo[2,3-c]pyridin-4-yl]pyridin-2-yl}carbamate]
10 | > 99 | < 0.01 | COC(=O)Nc1cc(-c2cnc(C)c3c2ccn3S(=O)(=O)C2CC2)ccn1 [Compound I-43, methyl {4-[1-(cyclopropylsulfonyl)-7-methyl-1H-pyrrolo[2,3-c]pyridin-4-yl]pyridin-2-yl}carbamate]
11 | > 99 | 0.01 to 0.05 | CC(=O)Nc1cc(-c2cnc(C)c3c2ccn3S(=O)(=O)C2CC2)ccn1 [Compound I-44, N-{4-[1-(cyclopropylsulfonyl)-7-methyl-1H-pyrrolo[2,3-c]pyridin-4-yl]pyridin-2-yl}acetamide]
12 | > 99 | 0.01 to 0.05 | CC(=O)Nc1cc(-c2cnc(C)c3c2ccn3S(C)(=O)=O)ccn1 [Compound I-45, N-{4-[7-methyl-1-(methylsulfonyl)-1H-pyrrolo[2,3-c]pyridin-4-yl]pyridin-2-yl}acetamide]
13 | > 99 | 0.01 to 0.05 | CC(=O)Nc1cc(-c2cnc(C)c3c2c(F)cn3S(C)(=O)=O)ccn1 [Compound I-46, N-{4-[3-fluoro-7-methyl-1-(methylsulfonyl)-1H-pyrrolo[2,3-c]pyridin-4-yl]pyridin-2-yl}acetamide]
14 | > 99 | 0.01 to 0.05 | CCOC(=O)Nc1cc(-c2cnc(C)c3c2ccn3S(=O)(=O)c2ccccc2)ccn1 [Compound I-47, ethyl {4-[7-methyl-1-(phenylsulfonyl)-1H-pyrrolo[2,3-c]pyridin-4-yl]pyridin-2-yl}carbamate]
15 | > 99 | 0.01 to 0.05 | Cc1ncc(-c2ccnc(NC(=O)CO)c2)c2ccn(S(=O)(=O)C3CC3)c12 [Compound I-48, N-{4-[1-(cyclopropylsulfonyl)-7-methyl-1H-pyrrolo[2,3-c]pyridin-4-yl]pyridin-2-yl}-2-hydroxyacetamide]
16 | 88 | 0.01 to 0.05 | O=S(=O)(C1CC1)n1ccc2c(-c3ccnc(Nc4ccncn4)c3)cncc21 [Compound I-49, N-{4-[1-(cyclopropylsulfonyl)-1H-pyrrolo[2,3-c]pyridin-4-yl]pyridin-2-yl}pyrimidin-4-amine]
17 | 82 | 0.01 to 0.05 | c1cc(Nc2cc(-c3cncc4[nH]ccc34)ccn2)ncn1 [Compound I-50, N-[4-(1H-pyrrolo[2,3-c]pyridin-4-yl)pyridin-2-yl]pyrimidin-4-amine]
18 | 91 | 0.01 to 0.05 | Cc1nccc(Nc2cc(-c3cnc(C)c4[nH]ccc34)ccn2)n1 [Compound I-51, 2-methyl-N-[4-(7-methyl-1H-pyrrolo[2,3-c]pyridin-4-yl)pyridin-2-yl]pyrimidin-4-amine]
